Results taken from patent US20180000768A1, “INTESTINAL FXR AGONISM ENHANCES GLP-1 SIGNALING TO RESTORE PANCREATIC BETA CELL FUNCTIONS” (Salk Institute for Biological Studies, priority 2015, published 2018).

How the values were obtained:
[1] = test system: ob/ob mice; test: in vivo GLP-1 secretion after glucose load; design: species or system mouse; details: Fex-treated ob/ob mice, sitagliptin (25 mg/kg) prior to glucose challenge
Experimental: (§1) In vitro GLP-1 secretion assay was performed in human enteroendocrinal L cells (NCI-H716). For each secretion assay, cells were seeded at 1×10^5 cells/ml (1 ml/well) in a matrigel-coated 24-well plate. Prior to GLP-1 secretion assay, cells were pre-treated with DMSO, 1 μM Fex, or 1 μM Fex-D overnight. Cells were deprived in Krebs buffer (with 0.1% BSA) with dipeptidyl peptidase (DPP)-4 inhibitor ([…] sitagliptin). GLP-1 was measured with a commercial kit (EZGLP1T-36K, Millipore). For in vivo GLP-1 secretion, each animal was gavaged with 25 mg per kg of body weight sitagliptin 60-minutes before glucose load. Blood was collected from the tail vein at the indicated intervals, and transferred to serum collection tubes containing sitagliptin.
To investigate whether Fex enhances GLP-1 secretion in vivo, mice were challenged with a DPP4 inhibitor, sitagliptin (25 mg/kg) prior to a glucose challenge.

[2] = test system: ob/ob mice; test: in vivo glucose-stimulated insulin secretion (GSIS); design: species or system mouse; details: Fex 100 mg/kg daily P.O., 5 weeks
Experimental: Insulin resistance can be associated with reduced […] insulin secretion in response to glucose, while GLP-1 augments glucose-stimulated insulin secretion (GSIS). To examine whether Fex treatment improves GSIS, serum insulin levels were determined after a glucose challenge in ob/ob mice.

[3] = test system: isolated islets; test: gene expression after direct ex vivo treatment of isolated islets; format: cell-based, mouse; details: 24 hours ex vivo, XL335 1 μM, Fex 1 μM
Experimental: Leptin-deficient ob/ob mice were treated daily with vehicle, Fex, or the analogue Fex-D (50 mg/kg) via P.O. for 14 days (A) Chemical structures of fexaramine and Fex-D (B) Schematic of the experimental design (C) Serum glucose levels (D) Glucose tolerance test (E) Insulin secretion in vivo (F) GLP-1 secretion in vivo (G) Heatmap showing hierarchal clustering of gene expression changes in islet induced by Fex (100 mg/kg, 4 wks) and FexD (50 mg/kg, 2 weeks) treatment in ob/ob mice (in vivo); by treatment of islets with XL335 (1 μM), Fex (1 μM), mFgf15 and hFgf19 (24 hours ex vivo); and mFgf15 (0.15 mg/kg, 2 weeks) and INT777 (Tgr5, 60 mg/kg, 4 weeks) treatment of ob/ob mice (in vivo). Gene expression was measured by RNA-Seq and changes are expressed as Z-score. (H) Ven diagram of changes in gene expression in pancreatic islets induced by FEX (100 mg/kg for 5 weeks) and FEX-D (50 mg/kg for 14 days). […] Data represent the mean±STD. Statistical analysis was performed with the Student's t test. *p<0.05, **p<0.01.
Next, primary islets were isolated from mice treated by Fex-D to compare gene expression changes.

[4] = test system: human enteroendocrinal L cells (NCI-H716); test: In vitro GLP-1 secretion assay; format: cell-based; details: L cells pretreated with compound
Experimental: as §1

[5] = test system: NCI-H716 cells; test: Extracellular oxygen consumption rate assay (Seahorse XF96); format: cell-based, human
Experimental: Briefly, NCI-H716 cells were seeded in XF 96-well cell culture microplates (Seahorse Bioscience) at 6.0×10^4 cells per well in 150 μl of growth medium and then incubated at 37° C./5% CO2 for 24 hr. A Seahorse Bioscience instrument model XF96 was used to measure the rate of change of dissolved oxygen in the media surrounding the cells. All procedures followed manufacturer's instructions. […] Conversely, treatment with the FXR antagonist guggulsterone reduced basal respiratory rates and the FCCP-induced maximum respiration rate (FIGS. 9A and 9B). To examine the effects of FXR activity on the secretion of GLP-1, the metabolic changes induced in human L cells was measured after treatment with the FXR agonist, fexaramine and an FXR antagonist, guggulsterone. Treatment of L cells with fexaramine (1 μM for 24 hours) lead to an increase in the oxygen consumption rate (OCR), consistent with increased mitochondrial activity and consequently, an increased energetic state (FIG. 9A). The reverse effect was seen after treatment with the FXR antagonist, guggulsterone, with lower OCR after drug treatment.

[6] = test system: Leptin-deficient ob/ob mice; test: metabolic phenotype and glucose homeostasis of treated ob/ob mice; format: in vivo, mouse
Experimental: Leptin-deficient ob/ob mice were purchased from Jackson laboratory (stock no. 000632). Each mouse consumed 100 mg per kg of body weight Fex (in corn oil) per day by oral gavage for 5 weeks. For in vivo analog study, each mouse consumed 50 mg per kg of body weight Fex-D (in corn oil) per day by oral gavage for 14 days. For GLP-1 receptor antagonist study, each mouse was daily treated with 100 μg per kg of body weight Exendin 9-39 amide (Abcam) via intraperitoneal injection for 2 weeks. For INT-777 study, each mouse was daily gavaged with 60 mg per kg of body weight INT-777 (in corn oil) for 5 weeks. For FGF15 study, each mouse was daily treated with 0.25 mg per kg of body weight FGF15 (in PBS with 0.1% BSA) via intravenous injection for 2 weeks. The sample sizes for all animal studies are indicated in each figure legend. All mice were housed in a specific pathogen-free facility with a 12-h light, 12-h dark cycle and given free access to food and water. All in vivo data were retrieved from 3 independent experimental animal cohorts. Core body temperature was measured with a clinical rectal thermometer (Thermalert model TH-5; Physitemp). For GTTs, 6-h fasted mice received 2 g of glucose per kg of body weight by oral gavage. Human insulin (Humilin, Eli Lilly) was used for insulin sensitivity test. Tail blood was drawn at indicated time intervals, and blood glucose level was measured with a One Touch Ultra glucometer (LifeScan). Body composition was measured with Echo MRI-100 body composition analyzer (Echo Medical Systems). All mice were randomly assigned to experimental groups for further analysis. No samples were excluded from the analysis.
Real-time metabolic analyses were conducted in a Comprehensive Lab Animal Monitoring System (Columbus Instruments). CO2 production, O2 consumption, RQ (relative rates of carbohydrate versus fat oxidation) and ambulatory counts were determined for 4 consecutive days and nights, with at least 24-h for adaptation before data recording.
To investigate the effect of Fex treatment in a diabetic mouse model, leptin-deficient obese mice (ob/ob) were subjected to daily treatment by oral gavage (100 mg/kg) for 5 weeks. […] Gene expression analysis confirmed the induction of UCP1 as well as a number of genes involved in β-oxidation, thermogenesis and oxidative phosphorylation (FIG. 1B-1D).

[7] = Fex 100 mg/kg daily oral gavage, 5 weeks
[8] = Fex 100 mg/kg daily oral gavage, 5 weeks, after 4 hour fast

COC(=O)/C=C/c1cccc(N(Cc2ccc(-c3ccc(N(C)C)cc3)cc2)C(=O)C2CCCCC2)c1 [Fexaramine]
glucose tolerance after DPP4 inhibitor pre-treatment [1]: improved
plasma GLP-1 level 20 minutes after the glucose challenge [1]: increase
serum insulin after a glucose challenge [2]: significant increase
transcriptional changes seen in islets in vivo with Fex and Fex-D [3]: not observed
GLP-1 secretion in response to a glucose challenge [4]: significant increase
maximum respiration rate induced by FCCP ([5]; L cells, Fex 1 μM for 24 hr, vehicle-treated L cells 130%): 155%
oxygen consumption rate (OCR) ([5]; human L cells, 24 hours, fexaramine 1 μM, guggulsterone 10 μM): increase
core temperature [6, 7]: increase
glucose tolerance [6, 7]: improved
gonadal fat (gWAT) tissue weight [6, 7]: modestly but significantly reduced
hepatic gluconeogenesis/lipogenesis [6, 7]: remarkably suppressed
insulin sensitivity [6, 7]: improved
proportion of M2 macrophages in gWAT [6, 7]: increasing
glucose levels [6, 8]: reduced
insulin levels [6, 8]: reduced
respiratory exchange ratio in the dark period ([6]; Fex 100 mg/kg daily oral gavage, 5 weeks, metabolic cages): increased
time serum glucose levels remained low after cessation of treatment ([6]; monitored for 4 weeks after Fex treatment was stopped): 3 weeks
